Laboratory results from PubChem BioAssay (NCI).
Where “and” joins values, the source holds several entries; their conditions need not be identical. Identical values can stand only once.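 Five concentrations, 48 hours, 96-well plates. At the GI50, growth is halved. TGI is the concentration that stops growth completely.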

Legend:
Experiment in all cases: NCI anticancer screen, dose series, 48 h
MDA-N = system: MDA-N
NCI/ADR-RES ovarian = system: NCI/ADR-RES ovarian
MDA-MB-435 = system: MDA-MB-435
LXFL 529 NSCLC = system: LXFL 529 NSCLC
HOP-18 NSCLC = system: HOP-18 NSCLC
SNB-78 CNS = system: SNB-78 CNS
DMS 114 small cell lung = system: DMS 114 small cell lung
XF 498 CNS = system: XF 498 CNS

Structure (SMILES)	TGI (NCI/ADR-RES ovarian)	TGI (MDA-MB-435)	GI50 (NCI/ADR-RES ovarian)	GI50 (MDA-MB-435)	also measured
COc1ccc2c(c1)Cc1cc(N=[N+]([O-])c3ccc4c(c3)Cc3cc(OC)ccc3-4)ccc1-2	> 100 µM	> 100 µM	–	–	TGI (MDA-N): > 100 µM
COC(=O)C1=C(O)C(C(=O)OC)[C@@]2(O)[C@@H](C(=O)OC)C(c3ccc(OC(=O)C(Cc4ccccc4)NC(C)=O)cc3)C[C@@H]1[C@@H]2C(=O)OC (stereo partly specified)	> 100 µM	50.2 µM	60.7 µM	23.5 µM	–
CC(=N\O)/C(C)=N/O.CC(=N\O)/C(C)=N/O.[Pd]	7.72 µM	5.43 µM	3.18 µM	2.64 µM	GI50 (MDA-N): 2.15 µM; TGI (MDA-N): 4.87 µM
COc1cc(C2CC(c3ccc(C)cc3)=NN2C(C)=O)ccc1Oc1ccnc2cc(Cl)ccc12 (stereo unspecified)	–	> 100 µM	–	> 100 µM	–
COc1ccc(-n2cc(-c3ccc(Cl)cc3)[nH]c2=S)cc1Cl	> 100 µM	> 100 µM	42.2 µM	> 100 µM	–
N#CC1(Cc2ccccc2Cl)c2ccccc2C=CN1C(=O)c1ccccc1 (stereo unspecified)	–	–	–	–	TGI (LXFL 529 NSCLC): > 100 µM; TGI (HOP-18 NSCLC): > 100 µM; TGI (SNB-78 CNS): > 100 µM; TGI (DMS 114 small cell lung): > 100 µM; TGI (XF 498 CNS): > 100 µM
COC1=C(NC(C)=O)C(=O)c2nc3n(c2C1=O)CCC3	41.1 µM	9.97 µM	–	–	TGI (MDA-N): 6.84 µM; TGI (HOP-18 NSCLC): 39.1 µM; TGI (SNB-78 CNS): 28.9 µM; TGI (DMS 114 small cell lung): 25 µM; TGI (XF 498 CNS): 33.6 µM
CCCCCc1c(C)[nH]c(/C=C2\N=C(c3ccc[nH]3)C=C2Oc2ccc(OC)cc2)c1C	2.13 µM and 1.14 µM	0.387 µM and 0.153 µM	0.37 µM and 0.203 µM	0.149 µM and 0.0331 µM	–
CC(C)n1c2c(c3ccccc3c1=O)C(=O)c1ccccc1-2	> 100 µM	> 100 µM	–	–	TGI (MDA-N): > 100 µM
C=CC[n+]1c(/C=C2\Sc3ccccc3N2C)sc(-c2ccccc2)c1-c1ccccc1	61.7 µM	1.68 µM	7.89 µM	0.335 µM	–
O=C(c1ccc(Cl)cc1)N(C(=S)N1CCN(c2ccccc2)CC1)C1CCCCC1	–	–	–	–	TGI (LXFL 529 NSCLC): > 100 µM; TGI (HOP-18 NSCLC): > 100 µM; TGI (SNB-78 CNS): > 100 µM; TGI (DMS 114 small cell lung): > 100 µM
COc1ccc(-c2ccc(/C=N/n3cnn(CN4CCN(C)CC4)c3=S)o2)c([N+](=O)[O-])c1	–	63.1 µM	–	30.4 µM	–
CC(=O)c1c[nH]c2ccc(-c3ccnc(Nc4ccc(NC(=O)c5cccc(F)c5)c(CN5CCOCC5)c4)n3)cc12	4.35 µM	1.47 µM	0.273 µM	0.204 µM	–
Cc1c(Br)cccc1NC(=O)c1sc2nc3c(cc2c1N)CN(Cc1ccccc1)CC3	10.5 µM	0.141 µM	0.136 µM	0.0366 µM	–
Cc1ccc(NC(=O)C(=O)C2C(=O)C3=C(CC2(C)C)NC2C=CC=CC2S3)c(C)c1 (stereo unspecified)	> 100 µM	> 100 µM	–	–	TGI (MDA-N): > 100 µM
Oc1ccc(Br)cc1CN1CCN(Cc2ccc(Cl)cc2)CC1	> 100 µM	90.4 µM	17.2 µM	20.8 µM	–
CC([C@H]1CCC2C3CCC4C(=O)C(NC=O)=CC[C@]4(C)C3CC[C@@]21C)N(C)C (stereo partly specified)	27.2 µM	> 29.9 µM	6.8 µM	2.81 µM	–
Nc1nc(Cl)cc2c1ncn2C1OC(CO)C(O)C1O (stereo unspecified)	> 100 µM	> 100 µM	> 100 µM	> 100 µM	–
COC1=CC(=O)c2c(O)c3c(c(O)c2C1=O)CC(C)(O)OC3 (stereo unspecified)	> 25.9 µM	3.05 µM	–	–	TGI (MDA-N): 3.57 µM
COc1cc2c(cc1OC)[C@@H]1[C@H](C2=O)c2ccc([N+](=O)[O-])cc2C(=O)N1CCCBr	9.93 µM	–	–	–	–
COC(=O)c1ccc2c(c1)[n+](=O)c(C(C)=O)c(C(F)(F)F)n2[O-]	6.41 µM	3.6 µM	2.48 µM	1.75 µM	–
O=C1C=Cc2cc3ccccc3c3cccc1c23	19.2 µM	70.7 µM	3.33 µM	16.3 µM	–
COC(=O)C(=O)C(C(=O)C(=O)Nc1ccc(Cl)cc1Cl)c1nc2ccc(Cl)cc2[nH]c1=O (stereo unspecified)	> 100 µM	> 100 µM	–	–	–
CC(C)CCC[C@@H](C)C1CCC2[C@@H]3CC=C4C[C@@H](OC(=O)CCC(=O)NCC[N+](C)(C)CCCS(=O)(=O)[O-])CC[C@]4(C)C3CC[C@@]21C (stereo partly specified)	–	–	–	–	TGI (LXFL 529 NSCLC): 71.6 µM; TGI (HOP-18 NSCLC): 97.2 µM; TGI (SNB-78 CNS): 70.1 µM; TGI (DMS 114 small cell lung): 36.1 µM
O=C(NCCc1ccccc1)C(c1csc2ccccc12)N(C(=O)CCl)c1ccc(-c2cnco2)cc1 (stereo unspecified)	1.17 µM	3.18 µM	0.114 µM	1.54 µM	–
COc1ccc(/C=N\N2C(=O)Cc3ccccc32)cc1	–	–	–	–	TGI (HOP-18 NSCLC): > 100 µM; TGI (SNB-78 CNS): > 100 µM; TGI (XF 498 CNS): 83.9 µM
